Data as given in US6211215A, “Heterocyclic compounds, their production and use” (Takeda Chemical Industries, Ltd., priority 1996, dated 2001).

Legend:
HER2 [1] = molecular target: T1, HER2 (Homo sapiens, UniProt P04626); assay: Inhibition of phosphorylation of receptor tyrosine in human breast cancer cells (1), T-47D, heregulin-stimulated; type: cell-based
Method: Human breast cancer cell line T-47D was cultured for 7 days in the medium containing 0.1% bovine fetus albumin instead of serum to deprive the medium of estrogen. On the 7th day, 1,000 μl of the cell suspension (250,000 cells) was seeded in each well of the 24-well plates. The culture were incubated at 37° C. in a 5% carbon dioxide gas incubator. On the next day, 100 μl of the 10-fold serial dilution of each compound solution was added to each well and, 2 hours later, 0.5 μg/ml of heregulin was added to it. After 5 minutes the extract solution was added to it to terminate the reaction, and the protein fraction was extracted. To the extract was added an antibody against the human receptor type oncogene HER2 to precipitate the human receptor type oncogene HER2 protein by the reaction of immunoprecipitation. The precipitate was fractionated by the protein electrophoresis. The protein in the electrophoretic gel was transferred to a nylon filter. The filter was allowed to react with the phosphorylated tyrosine-specific antibody. The reaction product was fluorescence-labeled to expose a photofilm. The intensity of the exposure on the photofilm was quantitated by an image-analyzing apparatus. The proportion of the phosphorylation of HER2 tyrosine in the cells added with a compound solution of each concentration was calculated designating the phosphorylation of HER2 tyrosine in the heregulin-added cells as 100%.
Target sequence in this assay (P04626 23-1255): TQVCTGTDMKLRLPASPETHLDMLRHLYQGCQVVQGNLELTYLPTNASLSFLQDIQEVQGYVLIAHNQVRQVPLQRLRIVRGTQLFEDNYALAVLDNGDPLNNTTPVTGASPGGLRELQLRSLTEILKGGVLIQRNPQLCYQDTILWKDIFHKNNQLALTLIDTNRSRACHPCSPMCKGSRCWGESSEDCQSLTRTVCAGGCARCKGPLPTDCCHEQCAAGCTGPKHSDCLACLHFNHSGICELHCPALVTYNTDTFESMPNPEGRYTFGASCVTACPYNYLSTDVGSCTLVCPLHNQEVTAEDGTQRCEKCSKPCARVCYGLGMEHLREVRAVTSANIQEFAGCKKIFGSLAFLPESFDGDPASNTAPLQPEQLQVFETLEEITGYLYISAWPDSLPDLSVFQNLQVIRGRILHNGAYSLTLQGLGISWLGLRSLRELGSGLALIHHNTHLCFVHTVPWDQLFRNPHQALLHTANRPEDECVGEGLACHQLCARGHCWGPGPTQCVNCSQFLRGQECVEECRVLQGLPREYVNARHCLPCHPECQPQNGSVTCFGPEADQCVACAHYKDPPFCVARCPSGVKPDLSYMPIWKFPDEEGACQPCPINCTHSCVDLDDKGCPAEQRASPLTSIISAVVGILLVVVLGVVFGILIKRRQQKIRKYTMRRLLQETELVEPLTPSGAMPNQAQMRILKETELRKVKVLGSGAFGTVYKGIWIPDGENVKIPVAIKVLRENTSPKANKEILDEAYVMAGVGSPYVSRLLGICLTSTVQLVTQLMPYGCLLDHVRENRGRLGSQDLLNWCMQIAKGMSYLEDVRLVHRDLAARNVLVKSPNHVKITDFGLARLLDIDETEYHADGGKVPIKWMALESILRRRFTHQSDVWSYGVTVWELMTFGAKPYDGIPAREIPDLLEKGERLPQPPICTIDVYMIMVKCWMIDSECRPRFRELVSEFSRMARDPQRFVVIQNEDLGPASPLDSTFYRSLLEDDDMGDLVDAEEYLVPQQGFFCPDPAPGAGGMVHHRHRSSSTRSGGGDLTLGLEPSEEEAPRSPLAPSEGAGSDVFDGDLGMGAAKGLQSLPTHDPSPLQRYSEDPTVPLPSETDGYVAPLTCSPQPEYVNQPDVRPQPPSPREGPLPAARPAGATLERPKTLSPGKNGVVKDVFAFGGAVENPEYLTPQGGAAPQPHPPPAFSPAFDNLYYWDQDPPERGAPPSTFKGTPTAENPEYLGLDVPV

[2] = tested on: human breast cancer cell line, MDA-MB-453; assay: In vivo mammary cancer inhibiting effect (1); design: species or system female Balb/C strain athymic nude mice; conditions: for Tumor growth rate (%): oral, tumor volume vs control
Method: 5,000,000 cells of human breast cancer cell line, MDA-MB-453, were suspended in a gelmatrix solution. The suspension was subcutaneously implanted at the breast in 7-week-old female Balb/C strain athymic nude mice (Friedman R. et al., Proceedings of the National Academy of Sciences of the U.S.A. Vol. 87, pp.6698-6702, 1990). Twelve days after the implantation, the diameters of tumors were determined. For the experiment were used 5 mice per group with similar tumor size. Compound 8 of the present invention was suspended in a 5% gum arabic solution (physiologicalsaline) and administered orally twice daily in dose of 30 mg/kg body weight for 10 days, or 2 cycle oral administrations consisting of 45 mg/kg body weight twice daily for 3 days and no treatment for 3 days were performed. On the day when the dosing was ended, the diameters of tumors were measured. Tumor volume was calculated by the following formula: volume of tumor=longest diameter×shortest diameter×shortest diameter×1/2. The growth rate of tumors was obtained as the proportion to the volume of tumor in the control animals in which only the gum arabic solution was administered. The body weights of mice administered with Compound 8 of the present invention were measured during the experiment to observe no decrease.

[3] = Body weights of mice during the in vivo tumor experiments; design: species or system Balb/C strain athymic nude mice
Method: 5,000,000 cells of human breast cancer cell line, MDA-MB-453, were suspended in a gelmatrix solution. The suspension was subcutaneously implanted at the breast in 7-week-old female Balb/C strain athymic nude mice (Friedman R. et al., Proceedings of the National Academy of Sciences of the U.S.A. Vol. 87, pp.6698-6702, 1990). Twelve days after the implantation, the diameters of tumors were determined. For the experiment were used 5 mice per group with similar tumor size. […] On the day when the dosing was ended, the diameters of tumors were measured. Tumor volume was calculated by the following formula: volume of tumor=longest diameter×shortest diameter×shortest diameter×1/2. […] The body weights of mice administered with Compound 8 of the present invention were measured during the experiment to observe no decrease.
5,000,000 cells of human breast cancer cell line, MDA-MB-453, were suspended in a gelmatrix solution. […] Twelve days after the implantation, the diameters of tumors were determined. […] On the day when the dosing was ended, the diameters of tumors were measured. Tumor volume was calculated by the following formula: volume of tumor=longest diameter×shortest diameter×shortest diameter×1/2. […] The body weights of mice administered with compounds of the present invention were measured during the experiment to observe no decrease. […]

HER2 [4] = molecular target: T1, HER2; assay: Inhibition of the activity of human growth factor receptor (HER2) tyrosine kinase; type: biochemical; design: the tyrosine kinase domain of the human HER2 gene was cloned; made in house; host or cells: insect cell line SF-21 (recombinant insect virus vector); conditions: HER2 receptor type tyrosine kinase; ELISA with HER3 substrate; read-out: Concentration of inhibiting HER2 (IC50)
Excerpt: As enzyme standard, the tyrosine kinase domain of the human HER2 gene was cloned to prepare the recombinant gene of insect virus vector, with which the insect cell line SF-21 was infected to produce an enzyme protein (Guy P. M. et al., Journal of Biological Chemistry Vol. 267, pp.13851-13856, 1992). As substrate, the phosphorylated tyrosine domain of the HER3 protein was cloned to prepare the recombinant gene of plasmid vector with which Escherichia Coli strain JM109 was infected to give an enzyme protein (Sierke S. L. et al., Biochemistry Vol. 32, pp.10102-10108, 1993). The enzymatic reaction was performed by the enzyme-linked immunological method which consisted of fixing the substrate protein in wells of a 96-well microtiter plate, adding the enzyme into the wells and quantitating phosphorylated tyrosine, which was the reaction product, by use of the anti-phosphorylated tyrosine antibody (Cleaveland J. S. et al., Analytical Biochemistry Vol. 190, pp249-253, 1990).
Target sequence in this assay (P04626 720-987 limits assumed): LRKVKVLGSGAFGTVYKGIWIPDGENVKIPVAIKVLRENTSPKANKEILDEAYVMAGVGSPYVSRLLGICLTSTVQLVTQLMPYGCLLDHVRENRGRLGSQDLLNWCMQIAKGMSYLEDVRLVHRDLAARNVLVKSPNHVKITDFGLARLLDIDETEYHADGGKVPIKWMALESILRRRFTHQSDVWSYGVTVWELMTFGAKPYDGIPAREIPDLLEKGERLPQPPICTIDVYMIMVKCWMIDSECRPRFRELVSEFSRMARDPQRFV

activity at 0.4 µM (HER2 [1]; T47D, 0.4 μM, heregulin control = 100%, read-out: Phosphorylation of the tyrosine residue (%)): 62% | activity at 1.6 µM (HER2 [1]; T47D, 1.6 μM, heregulin control = 100%, read-out: Phosphorylation of the tyrosine residue (%)): 52% | activity at 6.3 µM (HER2 [1]; T47D, 6.3 μM, heregulin control = 100%, read-out: Phosphorylation of the tyrosine residue (%)): 33% | activity at 25 µM (HER2 [1]; T47D, 25 μM, heregulin control = 100%, read-out: Phosphorylation of the tyrosine residue (%)): 20% | IC50 (HER2 [4]): 20 µM
SMILES: C(=C\c1nc(COc2ccc(CCCn3ccnc3)cc2)co1)/c1ccccc1 [Compound 8, 4-[4-[3-(1-imidazolyl)propyl]phenoxymethyl]-2-[(E)-2-phenylethenyl]oxazole]
Inhibition of receptor tyrosine phosphorylation (HER2 [1]; heregulin): inhibit dose-dependently the phosphorylation reaction of the tyrosine residue in the receptor protein | Tumor growth rate (%) ([2]; 60 mg/kg/day, 30 mg/kg twice daily for 10 days): 71% | Tumor growth rate (%) ([2]; 90 mg/kg/day, 2 cycles of 45 mg/kg twice daily 3 days and 3 days off): 46% | Inhibition of implanted tumor growth ([2]; MDA-MB-453, athymic nude mice): inhibited dose-dependently the growth of human breast cancer | Body weight change ([3]; Test Example 8, MDA-MB-453-bearing mice): no decrease | Body weight change ([3]; Test Example 11, LNCaP-bearing mice, oral 30 mg/kg twice daily 21 days): no decrease
